{"source": "patent US9868707B2", "about": "“Small molecule agonists of neurotensin receptor 1” (SANFORD-BURNHAM MEDICAL RESEARCH INSTITUTE, priority 2012, dated 2018)", "key": {"[1]": {"assay": "Parallel Artificial Membrane Permeability Assay (PAMPA)", "type": "in vitro ADME", "description": "The PAMPA in a 96-well sandwich plate format was used to determine the capacity of compounds to cross a model of cell membrane by passive diffusion (Avdeef, A., Nielsen, P. E., and Tsinman, O. 2004. PAMPA—a drug absorption in vitro model 11. Matching the in vivo unstirred water layer thickness by individual-well stirring in microtitre plates. Eur J Pharm Sci 22:365-374). The effective permeability of the compound was measured at an initial concentration of 50 μM. The permeability measurements were performed using a cosolvent buffer system (20% ACN/aqueous buffer) solution (pION Inc, Woburn Mass.) prepared according to the manufacturer's instructions. The compound was dissolved in buffer solution and ACN (20%, cosolvent) to the desired concentration (50 μM). The PAMPA sandwich plate consisting of a donor bottom plate and an acceptor filter plate was used. The donor wells contained the compounds in 190 μl system solution, and magnetic stir bars. The filter on the bottom of each acceptor well was coated with GIT-0 phospholipid solution (pION Inc) and filled with 200 μl of Acceptor Sink Buffer, pH 7.4 (pION Inc) containing surfactant. The permeation time was 30 min and moderate stirring (equivalent to 40 μm Aqueous Boundary Layer thickness) was applied using the Gut-Box™ (pION, Inc). After the permeation time, the sandwich was disassembled and the amount of compound present in both the donor and acceptor wells was measured by UV absorbance (250-498 nm) and compared to spectra obtained reference standards. Mass balance was used to determine the amount of material embedded in the membrane filter. The effective permeability, Pe, was calculated using the software PAMPA Evolution Plus, version 3.2 (pION Inc)."}, "[2]": {"assay": "Plasma stability, human plasma", "type": "in vitro ADME", "description": "Plasma stability was determined using previously published methods (Kerns, E. H., and Di, L. 2008. Drug-like Properties: Concepts, Structure Design and Methods. Oxford UK: Elsevier). Compound (1.0 μM) was incubated at 37° C. in human or mouse plasma (from blood of healthy donors collected on EDTA) diluted to 50% (v/v) with pH 7.4 isotonic phosphate buffer. At time 0 min and 180 min, aliquots were collected, added to acetonitrile to quench the reaction and precipitate plasma proteins. These samples were centrifuged and the supernatant analyzed by the LC/MS/MS method described above for the presence of the parental compound."}, "MOR": {"target": "T1, MOR (Homo sapiens, UniProt P35372)", "T1 construct": "Panlabs/Ricerca (contract panel)", "T1 sequence (P35372 whole entry)": "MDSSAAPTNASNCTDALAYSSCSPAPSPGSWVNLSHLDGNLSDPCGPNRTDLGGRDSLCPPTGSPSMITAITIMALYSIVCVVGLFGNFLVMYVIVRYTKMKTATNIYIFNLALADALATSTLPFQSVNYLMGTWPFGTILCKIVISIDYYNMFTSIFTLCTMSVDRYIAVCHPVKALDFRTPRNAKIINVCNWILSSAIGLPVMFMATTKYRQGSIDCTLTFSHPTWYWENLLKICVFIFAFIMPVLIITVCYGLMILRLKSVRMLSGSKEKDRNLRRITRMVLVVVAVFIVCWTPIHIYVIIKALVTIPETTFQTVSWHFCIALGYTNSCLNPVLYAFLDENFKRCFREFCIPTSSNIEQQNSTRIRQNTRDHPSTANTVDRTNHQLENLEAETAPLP", "assay": "Panlabs/Ricerca lead profiling panel, MOR", "type": "binding", "conditions": "@ 10 μM", "from_the_text": "However, these activities in in vitro binding assays may not translate into functional modulation of these receptors."}, "NTR1": {"target": "NTR1 (Homo sapiens, UniProt P30989)", "sequence (P30989 whole entry, species assumed)": "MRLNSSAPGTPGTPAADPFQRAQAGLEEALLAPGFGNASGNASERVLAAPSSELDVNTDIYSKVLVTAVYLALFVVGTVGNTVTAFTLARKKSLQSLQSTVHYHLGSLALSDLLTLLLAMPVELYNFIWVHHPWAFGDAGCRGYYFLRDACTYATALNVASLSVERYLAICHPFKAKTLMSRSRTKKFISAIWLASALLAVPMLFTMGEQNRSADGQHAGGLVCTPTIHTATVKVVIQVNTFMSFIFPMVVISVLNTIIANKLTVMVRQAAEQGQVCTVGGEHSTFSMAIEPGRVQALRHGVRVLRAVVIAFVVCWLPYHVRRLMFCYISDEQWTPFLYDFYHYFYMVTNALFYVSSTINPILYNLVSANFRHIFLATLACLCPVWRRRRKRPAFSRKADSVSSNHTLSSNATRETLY", "assay": "NTR1 high-content imaging (HCS) dose response, NTR1-U2OS cells", "type": "cell-based", "design": "host or cells: U2OS osteosarcoma", "conditions": "n = 4 unless otherwise noted", "from_the_text": "The cell lines utilized in the high-content imaging assays, which include the NTR1-, NTR2-, and GPR35-U2OS osteosarcomas, were obtained from the laboratory of Dr. Lawrence Barak at the Duke University Medical Center. The media used in the culture of the cell lines, as well as the assays themselves, consisted of Minimum Essential Medium (15-010-CM) and L-glutamine (25-005-CL) from Cellgro/Mediatech (Manassas, Va.), fetal bovine serum (SH30396.03) from Hyclone (Logan, Utah), penicillin-streptomycin solution (PS-20) from Omega Scientific in Tarzana, Calif., G418 (ant-gn-1) from Invivogen (San Diego, Calif.), and zeocin (R250-01) from Invitrogen (Carlsbad, Calif.). Cell lines were cultured in T225 tissue culture flasks (431082) supplied by Corning (Corning, N.Y.). Additional reagents employed include Dulbecco's Phosphate-Buffered Saline (DPBS) (21-031CV) from Cellgro/Mediatech, Trypsin-EDTA 0.05% (25300) from Invitrogen, paraformaldehyde (30528954) from Acros Organics (Geel, Belgium), Hoechst 33342 (H3570) from Invitrogen. The high-content assays were run in 1536-well plates (29326) supplied by Aurora Biotechnology (Poway, Calif.) and utilized aluminum plate seals (T592100) from E&K Scientific (Santa Clara, Calif.).\nThe neurotensin 1 peptide (N6383) from Sigma-Aldrich (St. Louis, Mo.) was used as a positive control in the NTR1 primary HCS assay. For the NTR2 selectivity assay, the non-specific, small molecule 3-(4-fluorophenyl)-7,8-dimethoxy-5-(4-methylbenzyl)-5H-pyrazolo[4,3-c]quinolone which was synthesized internally was used as a positive control. The GPR35 selectivity screen utilized zaprinast (ALX430-020-M010) from Alexis Biochemicals (Farmingdale, N.Y.) as a control.\nThe high-content imaging based NTR1 primary screen in 1536-well format was utilized to assay the MLSMR library of chemical entities in the following manner. On day one, 4 uL of a cell suspension containing 350,000 NTR1-U2OS cells per mL is added to each well of a 1536-well assay plate. Cells are plated in MEM medium containing 2.5% Fetal Bovine Serum, 1% Penicillin/Streptomycin solution, 1% L-Glutamine, 400 ug/mL G418, and 200 ug/mL Zeocin. The assay plates are then incubated overnight at 37° C., under 5% CO2. Following the overnight incubation, a volume of 60 nL of the compounds at 2 mM in DMSO (final 20 μM, 1% DMSO) was transferred to columns 5-48 of the assay plates using a LabCyte Echo Liquid Handler. Next, 60 nL of DMSO were dispensed to columns 1-4, which served as the positive and neutral control wells. […] The assay plates were centrifuged on an Eppendorf 5810 centrifuge at 1000 rpm for 1 min to ensure even liquid levels in the wells of the assay plates. The assay plates were then returned to the incubator for 1 hour. Following the hour-long incubation at 37° C., the cells in each well were fixed with 4 uL of 6% paraformaldehyde added with a Multidrop Combi. The assay plates were centrifuged as before and incubated at room temperature for 1 hour. On the Kalypsys, plates were then aspirated down to 2.5 uL per well and washed twice with 11 uL per well of DPBS, followed by a final aspiration to 2.5 uL per well. On the Combi dispenser, 5 uL of 5 ug/mL Hoechst 33342 diluted in DPBS was added to each well of assay plates. The plates were again centrifuged as previously described, sealed, and incubated for at least 1 hour prior to being loaded on a PerkinElmer Opera QEHS.\nImage acquisition was performed with a 45 plate capacity loader/stacker and the following settings: 40×0.6 NA air objective, acquisition camera set to 2-by-2 binning for an image size of 688 by 512 pixels, beta-arrestin-GFP acquired using 488 nm laser excitation and 540/75 nm emission filters, DAPI (nuclei) using 365 nm Xenon lamp excitation and 450/50 nm emission filters, 3 fields per well. Image analysis was performed using the Acapella Spot Detection Algorithm. For analysis settings and the metrics employed in the data analyses, please refer to supplemental information."}}}
{"smiles": "COc1cc2nc(C3CC3)nc(N3CCN(c4ccccc4OC)CC3)c2cc1OC", "note": "[Compound 315, 2-cyclopropyl-6,7-dimethoxy-4-(4-(2-methoxyphenyl)piperazin-1-yl)quinazoline]", "values": [{"measurement": "PAMPA Permeability, Pe", "setting": "[1]; Donor pH 5.0, Acceptor pH 7.4", "value": 1163, "unit": "×10⁻⁶ cm/s"}, {"measurement": "PAMPA Permeability, Pe", "setting": "[1]; Donor pH 6.2, Acceptor pH 7.4", "value": 2145, "unit": "×10⁻⁶ cm/s"}, {"measurement": "PAMPA Permeability, Pe", "setting": "[1]; Donor pH 7.4, Acceptor pH 7.4", "value": 2093, "unit": "×10⁻⁶ cm/s"}, {"measurement": "permeability in the PAMPA assay", "setting": "[1]; with increasing pH of the donor compartment", "value": "high permeability"}, {"measurement": "Plasma Stability (% Remaining at 3 hrs)", "setting": "[2]; Human", "value": 100, "unit": "%"}, {"measurement": "plasma stability", "setting": "[2]; species not stated", "value": "very high plasma stability"}, {"measurement": "activity at MOR", "setting": "MOR", "value": 86, "unit": "%"}, {"measurement": "EC50", "setting": "NTR1; Ave. ± S.E.M., read-out: HCS NTR1 Potency EC50", "value": "2000 ± 100", "unit": "nM"}, {"measurement": "Emax", "setting": "NTR1; read-out: HCS NTR1 Potency Emax", "value": 105, "unit": "%"}]}
